According to patent publication US11384159B2, “B-1,3-1,6-glucan powder, glucan-containing composition, method for producing B-1,3-1,6-glucan powder, inclusion complex, method for producing inclusion complex, and method for recovering guest molecule” (MITSUBISHI GAS CHEMICAL COMPANY, INC., priority 2017, dated 2022):

Test: Inclusion of poorly water-soluble substance (curcumin): absorbance of supernatant at 405 nm
Type: physicochemical
Conditions: 0.002 mol/L monomer glucose; curcumin in acetone, 1 vol. % acetone; 3 hours, 25° C.; after centrifugation
From the text: In order to examine the change in characteristics of centrifugally regenerated β-1,3-1,6-glucan in association with powder formation, the envelopment and solubilizing capacity of the centrifugally regenerated β-1,3-1,6-glucan with respect to poorly water-soluble substances were compared.
β-1,3-1,6-glucan (lyophilized) derived from Aureobasidium pullulans was used as the centrifugally regenerated β-1,3-1,6-glucan powder, and curcumin (available from Tokyo Chemical Industry Co., Ltd., catalog number: 00435) was used as the poorly water-soluble substance.
The centrifugally regenerated β-1,3-1,6-glucan powder was dissolved in distilled water at a concentration of 1.0% by mass, and the glucose concentration was calculated through the phenol-sulfuric acid method, after which the solution was diluted and used. […]
Each centrifugally regenerated β-1,3-1,6-glucan solution having a monomer glucose concentration adjusted to 0.002 mol/L was prepared at an amount of 1 mL each, and an acetone solution of curcumin adjusted to a concentration of 0.05 mol/L was added such that the final concentration of acetone was 1 vol. %. […] Centrifugation (KUBOTA3740 (available from Kubota Manufacturing Co., Ltd.), 14000 G, 5 minutes) was carried out, the insoluble matter was removed, and the absorbance of the supernatant at a wavelength of 405 nm was compared. […]

## COc1cc(/C=C/C(=O)CC(=O)/C=C/c2ccc(O)c(OC)c2)ccc1O [curcumin]
  absorbance (wavelength of 405 nm) originating from the curcumin in the supernatant: 0.045
